What was measured:
[1] = test system: Normal human dermal fibroblasts (NHDF); test: Hyaluronic acid production promoting effect (ELISA of supernatant); type: cell-based; details: amount of hyaluronic acid produced, % with control group taken as 100%; sample at 10 mmol/L or less, 48 hours, N=3
Description: Normal human dermal fibroblasts (NHDF) were prepared in D-MEM containing 5% (v/v) fetal bovine serum to a cell density of 2.5× 10^4 cells/well, and then pre-incubated on a 96-well plate for 24 hours. After removing the medium, samples prepared in serum-free D-MEM were added to each well and cultured for 48 hours. After the culture was completed, the amount of hyaluronic acid in the supernatant was quantified by ELISA method. The measurement was performed with N=3.
(§1) The amount of hyaluronic acid produced when the samples were measured at a concentration of 10 mmol/L or less was compared with that of the control group, and the results (% values when the control group is taken as 100%) are shown in Tables 18 to 20 based on the following criteria. • <100%: ± • 100-120%: + • 120-150%: ++ • 150%: +++

[2] = Stability test (residual rate by HPLC, odor, coloring); type: physicochemical; details: 1% aqueous solution; for Coloring / Odor: total score of 10 panelists
Description: With a dilute potassium hydroxide aqueous solution, 1% aqueous solution of each test sample was adjusted to pH 6, placed in a 50 mL screw tube, sealed, […], and then subjected to HPLC measurement (using a liquid chromatograph manufactured by Shimadzu Corporation) to determine the residual rate from the peak area. The residual rate, odor, and coloring degree were evaluated according to the following methods and criteria.
Residual rate: • ⊚: 90% or more • ◯: 80% or more, less than 90% • Δ: 60% or more, less than 80% • x: 20% or more, less than 60% • xx: Less than 20%
Evaluation was made by 10 panelists according to the following criteria. • 3: Almost odorless • 2: There is a slight strange odor. • 1: A strong odor is detected.
Based on the evaluation results, the following classification was made: • ⊚: Total score of 10 panelists is 25 or more • ◯: Total score of 10 panelists is 20-24 • Δ: Total score of 10 panelists is 16-19 • x: The total score of 10 panelists is 15 or less
Evaluation was made by 10 panelists according to the following criteria. • 3: Almost no change compared to immediately after preparation. • 2: Color changes compared to immediately after preparation. • 1: Strongly colored compared to immediately after preparation.
Based on the evaluation results, the following classification was made: • ◯: Total score of 10 panelists is 25 or more • Δ: Total score of 10 panelists is 16-24 • x: The total score of 10 panelists is 15 or less

[3] = test system: B16 melanoma 4A5 cells; test: Melanin production inhibitory effect (theophylline-induced melanin production); type: cell-based, mouse; details: melanin production inhibition rate, sample at a concentration of 10 mM or less, 3 days culture, theophylline 1 mmol/L, N=4
Description: As a test of the whitening effect, the effect on theophylline-induced melanin production in B16 melanoma 4A5 cells was evaluated for the ascorbic acid derivatives of the present invention according to the following procedure. A similar evaluation was also performed for a known ascorbic acid derivative for comparison. The results are shown in Tables 9 to 11. • (1) B16 mouse melanoma 4A5 cells were seeded in a 48-well plate at a cell density of 8.0×10^3 cells/well. • (2) After culturing for 24 hours in Dulbecco's modified Eagle's medium (manufactured by SIGMA, hereinafter abbreviated as “D-MEM”) containing 10% fetal bovine serum, the medium was replaced with D-MEM containing 10% fetal bovine serum containing theophylline (final concentration 1 mmol/L) and a specified concentration of a sample. • (3) After culturing for 3 days in the presence of the sample, the medium was removed using an aspirator, distilled water was added, and the cells were disrupted by ultrasonication. • (4) The amount of protein was then quantified using a BCA protein assay kit (manufactured by PIERCE), and the amount of melanin produced was measured by an alkali solubilization method. Sodium hydroxide was added to the cell lysate to a final concentration of 1 mol/L, and the solution was dissolved by heating (60° C., 30 minutes), thereafter the absorbance at 405 nm was measured using a microplate reader. The amount of melanin was calculated from a calibration curve prepared using synthetic melanin (SIGMA) as a standard. The amount of melanin per unit protein was calculated by dividing the amount of melanin by the amount of protein. • (5) The melanin production inhibition rate was calculated using the following formula.
[In the formula, A represents the amount of melanin per unit protein (g/g) when the sample was added, B represents the amount of melanin per unit protein (g/g) in the normal group, and C represents the amount of melanin per unit protein (g/g) in the control group.]
The melanin production inhibition rate when the sample was measured at a concentration of 10 mM or less is expressed as follows. The measurement was performed with N=4. • <20%: ± • 20-40%: + • 40-60%: ++ • 60-100%: +++

[4] = test system: Normal human dermal fibroblasts; test: Collagen production promoting effect (ELISA of supernatant); type: cell-based; details: amount of collagen produced, % with control group taken as 100%; sample at 10 mmol/L or less, 48 hours, N=3
Description: Normal human dermal fibroblasts were prepared in D-MEM containing 5% (v/v) fetal bovine serum to a cell density of […] cells/well, and pre incubated on a 96-well plate for 24 hours. After removing the medium, samples prepared to a predetermined concentration in D-MEM containing 5% (v/v) fetal bovine serum were added to each well and cultured for 48 hours. After completion of the culture, the amount of free collagen in the supernatant was quantified by ELISA method. The measurement was performed with N=3.
as §1, with “of collagen” for “of hyaluronic acid”, “Tables 15” for “Tables 18”, “to 17” for “to 20”, “• 120%:” for “• 120-150%:”, “++” for “++ • 150%: +++”

[5] = pH 6, stored at 50° C., four weeks later
[6] = pH 6, stored at 50° C., two weeks later

| Residual rate ([2]; pH 6, 50° C., initial) | Residual rate [2, 5] | Residual rate [2, 6] | SMILES | Hyaluronic acid production promoting effect [1] | Coloring ([2]; pH 6, 50° C., initial) | Odor ([2]; pH 6, 50° C., initial) | Coloring [2, 5] | Odor [2, 5] | Coloring [2, 6] | Odor [2, 6] | Melanin production inhibition effect [3] | Collagen production promoting effect [4] |
| --- | --- | --- | --- | --- | --- | --- | --- | --- | --- | --- | --- | --- |
| ⊚ (⊚: 90% or more) | ⊚ (⊚: 90% or more) | ⊚ (⊚: 90% or more) | CCCCCCCCC(O)COC1=C(OCC(C)(C)O)[C@@H]([C@@H](O)CO)OC1=O (stereo partly drawn) [Synthesis Example 41, 3-O-(2-hydroxyisobutyl)-2-O-(2-hydroxydecyl) ascorbic acid] | ++ (120-150%: ++) | ◯ (◯: Total score of 10 panelists is 25 or more) | ◯ (◯: Total score of 10 panelists is 20-24) | ◯ (◯: Total score of 10 panelists is 25 or more) | ◯ (◯: Total score of 10 panelists is 20-24) | ◯ (◯: Total score of 10 panelists is 25 or more) | ◯ (◯: Total score of 10 panelists is 20-24) | ++ (40-60%: ++) | + (100-120%: +) |
| ⊚ (⊚: 90% or more) | ⊚ (⊚: 90% or more) | ⊚ (⊚: 90% or more) | CCCCOCC(O)COC1=C(OCC(C)(C)O)C(=O)OC1C(O)CO (stereo not drawn) [Synthesis Example 14, 2-O-(2-hydroxyisobutyl)-3-O-(2-hydroxy-3-O-butyl) ascorbic acid] | ++ (120-150%: ++) | ◯ (◯: Total score of 10 panelists is 25 or more) | ⊚ (⊚: Total score of 10 panelists is 25 or more) | ◯ (◯: Total score of 10 panelists is 25 or more) | ◯ (◯: Total score of 10 panelists is 20-24) | ◯ (◯: Total score of 10 panelists is 25 or more) | ⊚ (⊚: Total score of 10 panelists is 25 or more) | ++ (40-60%: ++) | ++ (120%: ++) |
| ⊚ (⊚: 90% or more) | ⊚ (⊚: 90% or more) | ⊚ (⊚: 90% or more) | CCCCCCCCCCCCCCOC1=C(OCC(C)(C)O)[C@@H]([C@@H](O)CO)OC1=O [Synthesis Example 24, 2-O-tetradecyl-3-O-(2-hydroxyisobutyl) ascorbic acid] | ++ (120-150%: ++) | ◯ (◯: Total score of 10 panelists is 25 or more) | ◯ (◯: Total score of 10 panelists is 20-24) | ◯ (◯: Total score of 10 panelists is 25 or more) | ◯ (◯: Total score of 10 panelists is 20-24) | ◯ (◯: Total score of 10 panelists is 25 or more) | ◯ (◯: Total score of 10 panelists is 20-24) | +++ (60-100%: +++) | ++ (120%: ++) |
| ⊚ (⊚: 90% or more) | ⊚ (⊚: 90% or more) | ⊚ (⊚: 90% or more) | CCCCCCCCC(O)COC1=C(OCC(C)(C)O)C(=O)O[C@@H]1[C@@H](O)CO (stereo partly drawn) [Synthesis Example 36, 2-O-(2-hydroxyisobutyl)-3-O-(2-hydroxydecyl) ascorbic acid] | ++ (120-150%: ++) | ⊚ | ◯ (◯: Total score of 10 panelists is 20-24) | ◯ (◯: Total score of 10 panelists is 25 or more) | ◯ (◯: Total score of 10 panelists is 20-24) | ◯ (◯: Total score of 10 panelists is 25 or more) | ◯ (◯: Total score of 10 panelists is 20-24) | ++ (40-60%: ++) | + (100-120%: +) |
|  |  |  | C=CCOC1=C(OCC(C)(C)O)C(=O)O[C@@H]1[C@@H](O)CO [Synthesis Example 11, 2-O-(2-hydroxyisobutyl)-3-O-allylascorbic acid] | ++ (120-150%: ++) |  |  |  |  |  |  | +++ (60-100%: +++) | ++ (120%: ++) |
|  |  |  | CCCCCCCCCCCCOC1=C(OCC(C)(C)O)[C@@H]([C@@H](O)CO)OC1=O [Synthesis Example 23, 2-O-dodecyl-3-O-(2-hydroxyisobutyl) ascorbic acid] | ++ (120-150%: ++) |  |  |  |  |  |  | +++ (60-100%: +++) | ++ (120%: ++) |
|  |  |  | CC(O)COC1=C(OCC(C)(C)O)C(=O)O[C@@H]1[C@@H](O)CO (stereo partly drawn) [Synthesis Example 34, 2-O-(2-hydroxyisobutyl)-3-O-(2-hydroxypropyl) ascorbic acid] | ++ (120-150%: ++) |  |  |  |  |  |  | +++ (60-100%: +++) | + (100-120%: +) |
|  |  |  | CCCOC1=C(OCC(C)(C)O)C(=O)O[C@@H]1[C@@H](O)CO [Synthesis Example 32, 2-O-(2-hydroxyisobutyl)-3-O-propylascorbic acid] | ++ (120-150%: ++) |  |  |  |  |  |  | ++ (40-60%: ++) | ++ (120%: ++) |
|  |  |  | C=CCOC1=C(OCC(C)(C)O)[C@@H]([C@@H](O)CO)OC1=O [Synthesis Example 26, 2-O-allyl-3-O-(2-hydroxyisobutyl) ascorbic acid] | ++ (120-150%: ++) |  |  |  |  |  |  | + (20-40%: +) | ++ (120%: ++) |
|  |  |  | CCC(O)COC1=C(OCC(C)(C)O)C(=O)O[C@@H]1[C@@H](O)CO (stereo partly drawn) [Synthesis Example 35, 2-O-(2-hydroxyisobutyl)-3-O-(2-hydroxybutyl) ascorbic acid] | ++ (120-150%: ++) |  |  |  |  |  |  | ++ (40-60%: ++) | ++ (120%: ++) |
|  |  |  | CCCCCCCCCCCCCCOC1=C(OCC(C)(C)O)C(=O)O[C@@H]1[C@@H](O)CO [Synthesis Example 9, 2-O-(2-hydroxyisobutyl)-3-O-tetradecyl ascorbic acid] | +++ (150%: +++) |  |  |  |  |  |  | ++ (40-60%: ++) | ++ (120%: ++) |

Reference: patent US20260001853A1, “ASCORBIC ACID DERIVATIVE OR SALT THEREOF, AND COSMETIC THEREOF” (SEIWA KASEI COMPANY, LIMITED, priority 2022, published 2026)
